# Patent US5770383A, “Tricyclic retinoids, methods for their production and use” (Ligand Pharmaceuticals, Inc., priority 1995, dated 1998)
# Experiments:
# RAR and RXR receptors = assay: Co-transfection assay, RARs and RXRs taken together; type: cell-based
# Method: (§1) Utilizing the "cis-trans" or "co-transfection" assay described by Evans et al., Science, 240:889-95 (May 13, 1988), the disclosure of which is herein incorporated by reference, the retinoid compounds of the present invention were tested and found to have strong, specific activity as either selective RAR agonists, selective RXR agonists, or as pan-agonist activators of both RAR and RXR receptors. This assay is described in further detail in U.S. Pat. Nos. 4,981,784 and 5,071,773, the disclosures of which are incorporated herein by reference.
# (§2) The co-transfection assay provides a method for identifying functional agonists which mimic, or antagonists which inhibit, the effect of native hormones, and quantifying their activity for responsive IR proteins. In this regard, the co-transfection assay mimics an in vivo system in the laboratory. Importantly, activity in the co-transfection assay correlates very well with known in vivo activity, such that the co-transfection assay functions as a qualitative and quantitative predictor of a tested compounds Ln vivo pharmacology. See, e.g., T. Berger et al. 41 J. Steroid Biochem. Molec. Biol. 733 (1992), the disclosure of which is herein incorporated by reference.
# (§3) In the co-transfection assay, a cloned cDNA for an IR (e.g., human RARα, RARβ, RXRγ) under the control of a constitutive promoter (e.g., the SV 40 promoter) is introduced by transfection (a procedure to induce cells to take up foreign genes) into a background cell substantially devoid of endogenous IRs. This introduced gene directs the recipient cells to make the IR protein of interest. A second gene is also introduced (co-transfected) into the same cells in conjunction with the IR gene. This second gene, comprising the cDNA for a reporter protein, such as firefly luciferase (LUC), controlled by an appropriate hormone responsive promoter containing a hormone response element (HRE). This reporter plasmid functions as a reporter for the transcription-modulating activity of the target IR. Thus, the reporter acts as a surrogate for the products (mRNA then protein) normally expressed by a gene under control of the target receptor and its native hormone.
# (§4) The co-transfection assay can detect small molecule agonists or antagonists of target IRs. Exposing the transfected cells to an agonist ligand compound increases reporter activity in the transfected cells. This activity can be conveniently measured, e.g., by increasing luciferase production, which reflects compound-dependent, IR-mediated increases in reporter transcription. […] . Increasing concentrations of a suspected antagonist will decrease the reporter signal (e.g., luciferase production). The co-transfection assay is therefore useful to detect both agonists and antagonists of specific IRs. Furthermore, it determines not only whether a compound interacts with a particular IR, but whether this interaction mimics (agonizes) or blocks (antagonizes) the effects of the native regulatory molecules on target gene expression, as well as the specificity and strength of this interaction.
# To determine RAR and/or RXR agonist activity of the compounds of the present invention, the CV-1 cells were transiently transfected by calcium phosphate coprecipitation according to the procedure of Berger et al., 41 J.Steroid Biochem. Mol. Biol., 733 (1992) with the following receptor expressing plasmids: pRShRARα: Giguere et al., 330 Nature, 624 (1987); pRShRARβ and pRShRARγ, Ishikawa et al., 4 Mol. Endocrin., 837 (1990); pRShRXRα, Mangelsdorf et al., 345 Nature, 224 (1990); and pRSmRXRβ and pRSmRXRγ, Mangelsdorf et al., 6 Genes & Devel., 329 (1992), the disclosures of which are herein incorporated by reference.
# RARs = assay: Co-transfection assay, RARs taken together; type: cell-based; conditions: Table 1
# Method: as §1, §2, §3
# as §4, with “Furthermore, it determines not only whether a compound interacts with a particular IR, but whether this interaction mimics (agonizes) or blocks (antagonizes) the effects of the native regulatory molecules on target gene expression, as well as the specificity and strength of this interaction.” left out
# TPA induction of ODC = conditions: literature; cited from earlier work
# AML-193 cell line = assay: Incorporation of 3H-thymidine, AML-193; conditions: 96 h, read-out: TdR IC50
IC50 (AML-193 cell line) [nM],Structure (SMILES),selectivity / potency profile on RARs and RXRs in words (RAR and RXR receptors),RAR activity in words (RARs),"effect on ODC activity, in words (TPA induction of ODC)"
–,"CC(/C=C/CC1CCCc2cc3c(cc21)C(C)(C)CCC3(C)C)=C\C(=O)O (racemic) [Compound 124b, (2E,4E)-3-Methyl-6-(1,2,3,4,5,6,7,8-octahydro-5,5,8,8-tetramethylanthracen-1-yl)hexa-2,4-dienoic acid]",superior potency profiles to that of the known RXR active pan-agonist compound 9-cis retinoic acid,–,–
–,"CC(/C=C/C=C1/CCCc2cc3c(cc21)C(C)(C)CCC3(C)C)=C\C(=O)O [Compound 101b, (2E,4E)-3-Methyl-6-[(Z)-3,4,5,6,7,8-hexahydro-5,5,8,8-tetramethyl-2H-anthracen-1-ylidene]hexa-2,4-dienoic acid]",superior potency profiles to that of the known RXR active pan-agonist compound 9-cis retinoic acid,extremely potent RAR active,–
–,"CC(/C=C/C=C1/CC(C)(C)Oc2cc3c(cc21)C(C)(C)CCC3(C)C)=C\C(=O)O [Compound 104b, (2E,4E)-3-Methyl-6-(2,3,6,7,8,9-hexahydro-2,2,6,6,9,9-hexamethylbenzo[b]-chromen-4-ylidene)-hexa-2,4-dienoic acid]",potent and selective RXR compound,–,–
–,"CC(/C=C/C=C1\CCCc2cc3c(cc21)C(C)(C)CCC3(C)C)=C\C(=O)O [Compound 109b, (2E,4E)-3-Methyl-6-[(E)-3,4,5,6,7,8-hexahydro-5,5,8,8-tetramethyl-2H-anthracen-1-ylidene]hexa-2,4-dienoic acid]",RAR selective,extremely potent RAR active,–
–,"CC(/C=C/C=C1\CCOc2cc3c(cc21)C(C)(C)CCC3(C)C)=C\C(=O)O [Compound 119b, (2E,4E)-3-Methyl-6-[(E)-2,3,6,7,8,9-hexahydro-6,6,9,9-tetramethyl-benzo[g]chromen-4-ylidene]hexa-2,4-dienoic acid]",RAR selective,extremely potent RAR active,–
–,CC(/C=C/C=C1/CCOc2cc3c(cc21)C(C)(C)CCC3(C)C)=C\C(=O)O [Compound 144b],superior potency profiles to that of the known RXR active pan-agonist compound 9-cis retinoic acid,extremely potent RAR active,–
–,"CCCCCCCCCCCCCC(=O)O[C@@H]1[C@@H](C)[C@@]2(O)[C@@H](C=C(CO)C[C@]3(O)C(=O)C(C)=C[C@@H]23)[C@@H]2C(C)(C)[C@]12OC(C)=O [TPA, 12-0-tetradecanoylphorbor-13-acetate]",–,–,induces ODC activity
0.1,"C/C(=C\c1ccc(C(=O)O)cc1)c1ccc2c(c1)C(C)(C)CCC2(C)C [TTNPB, (E)-4-[2-(5,6,7,8-tetrahydro-5,5,8,8-tetramethyl-2-napthalenyl)-1-propenyl]benzoic acid]",–,–,–
–,CC1=C(/C=C/C(C)=C/C=C/C(C)=C/C(=O)O)C(C)(C)CCC1 [retinoic acid],–,–,inhibits this induction of ODC by TPA
